The values below come from patent US7737250B2, “Peptides for treating axonal damage, inhibition of neurotransmitter release and pain transmission, and blocking calcium influx in neurons” (Mount Sinai School of Medicine of New York University, priority 2003, dated 2010).

“Also recorded” adds a separate entry of the source.

Experiment [1] has as its system secretion of Substance P from DRG neurons. In words: Substance P secretion, single-cell immunoblot assay. It is filed as cell-based, chick. The conditions noted are these: baclofen in addition to AP-YF peptide. As for the experimental part:
Secretion Assay: Secretion of substance P was analyzed using the single-cell immunoblot method adapted from Huang and Neher (Huang, L. Y., Neher, E. (1996) Neuron. 17, 135-45.). Briefly, polyvinylidene difluoride transfer membranes (Immobilon P brand from Millipore) were cut to […] and placed in a 6-well plate. Membranes were pre-wetted with methanol for 20 s, rinsed with distilled water and allowed to equilibrate in test solution for >1 hr. In parallel, DRG cells plated were incubated with media containing AP-YF or AP-Scr (1.4 μg/ml) for 1 hour. This media was removed, and replaced with 70 μl of test solution. The membranes were then placed on top of the cells, and allowed to incubate at 37° C. in a humidified CO2 incubator for 30 min. The membranes were then carefully removed from the cells and allowed to dry completely and fixed with powdered paraformaldehyde at 80° C. for 1 hr. Fixed membranes were rinsed in PBS (1 mM KH2PO4, 10 mM Na2HPO4, 137 mM NaCl, 2.7 mM KCl) containing 1% Triton X-100 (PBS-T) to remove excess paraformaldehyde, and blocked with PBS-T containing 3% fetal bovine serum (FBS) for 30 min at room temperature. The membranes were incubated with anti-substance P antibody (Santa Cruz) at 1:200 dilution in PBS-T with 1% FBS overnight in 37° C. incubator. The next day the membranes were developed with a peroxidase/diamninobenzidine (DAB) reaction using the ABC staining kit from Santa Cruz Biotechnology. Images were taken using a CCD camera, and analyzed using Photoshop and NIH image software. Data were plotted by assigning an upper and lower limit of gray values and plotting % of cells at a range within those limits. By plotting graphs as % of cells in a dynamic range, multiple experimental runs were pooled.
A general note: Immunoblotting shows a protein as a band on a membrane.

The next experiment has as its system Cav2.2 channels. Description: Calcium channel distribution by confocal indirect immunofluorescence in DRG neurons. The class given is cell-based, chicken. The conditions noted are these: DRG neurons; application of the transmitter.
For experiment [2], the system named is cell-surface myc-L1-CAM on ND-7 cells. In words: Cytoskeleton attachment assay: resistance of 9E10 bead-myc-L1-CAM complexes to lateral displacement by laser trap. The class given is cell-based, rat. The conditions noted are these: 2 μM cytochalasin D; ND-7 cells expressing myc-L1-CAM. Here is the method: Cell culture and transfection: ND-7 cells (rat neuroblastoma/DRG hybrid cells) were cultured as described in Example 2. 24 hours prior to transfection, cultured cells were plated on coverslips coated with poly-D-lysine and laminin sealed to the bottom of 35 mm culture dishes (Mattek Corp.). Plated cells were transfected with the pL1-CAM or pMyc-L1-CAM expression constructs using Lipofectamine plus (Invitrogen) according to manufacturer's instructions. Transfected cells were cultured for 24-36 hours, and then used for live microscopy. For laser trap and video microscopy, the medium was replaced with phenol red-free serum-free L15 medium (air buffered) with 20 mM HEPES, 0.1% BSA, 0.5% ovalbumin. Cells transfected with the bicistronic expression constructs express a single mRNA encoding both the myc-L1-CAM proteins and EGFP, such that transfected cells were identified by EGFP fluorescence. […]
Video microscopy, laser tweezers, and data analysis: The 9E10-coated latex beads were then placed and held with an optical gradient laser trap on the surface of transfected cells at a distance of between 0.5 and 1 μm from the leading edge for 2 seconds. […] This wavelength was previously determined to generate the fewest heating artifacts in live cells (Svoboda and Block. Biomol Struct 1994;23:-247-285 and Choquet et al. Cell 1997;88:39-48). […]

Experiment [3] has the same test system. Description: L1-CAM diffusion behavior assay: movement of 9E10-coated beads bound to myc-L1-CAM (video microscopy, laser tweezers). It is filed as cell-based, rat. The conditions noted are these: ND-7 cells expressing wild-type myc-L1-CAM; cytochalasin D 2 μM, nocadazole 1 μM, NGF 100 ng/mL 1 hour. An excerpt:
Video microscopy, laser tweezers, and data analysis: The 9E10-coated latex beads were then placed and held with an optical gradient laser trap on the surface of transfected cells at a distance of between 0.5 and 1 μm from the leading edge for 2 seconds. The laser trap consisted of a Titanium Sapphire (Coherent; model 890) solid state laser pumped by a 5 W frequency-doubled Neodymnium Vanadate laser (Verdi; Coherent) and tuned to 800 nm. This wavelength was previously determined to generate the fewest heating artifacts in live cells (Svoboda and Block. Biomol Struct 1994;23:-247-285 and Choquet et al. Cell 1997;88:39-48). Laser power at the output of the Titanium Sapphire laser was 40 mW, and prepared beads were placed and held on the cell surface for less than 3 sec to further reduce the possibility of heating artifacts. Laser light was introduced through the television port of the Axiovert microscope.
Video images of bead movement were collected using a newvicon camera (Dage MTI; VE-1000N) and background subtraction and contrast enhancement were carried using a Hamamatsu Argus 20 image processor. Raw data were recorded to sVHS video tape for subsequent analysis. Video recordings were subsequently digitized onto an Intel processor-based computer running the Isee imaging software (Isee Imaging) running under Red Hat Linux 7.1. Quantification of bead movement was carried out in Isee. Diffusional analysis was carried out using a custom spreadsheet in Excel (Microsoft). This spreadsheet carries out 4 operations: first, it scales the data from pixel measurements to nm using the appropriate scale factor (determined by the magnification used to observe bead movement); second, it subtracts the first point from all of the data, to set the origin at 0,0 (x,y coordinates); third, it rotates (in two dimensional space) the data around the origin so that the orientation of the cell is the same from trial to trial (here, the data was set so that the cells all face to the left); and fourth, the spreadsheet calculates the mean square displacement (MSD) data which are used to calculate diffusion coefficients and bead velocity. Individual traces were scored blind for classes of behavior. Statistical analysis of percentages of trials was carried out using chi-squared analysis or a Fisher's exact probability test.
MSD values were calculated as previously described (see Qian et al, 1991; Biophysical Journal 60 p910). For these calculations, the squared displacement (a^2+b^2; where a=xn+t−xn, b=a=yn+t−yn for any two points separated by time t) of the bead was calculated between two points in the data set. The mean of the squared displacements was calculated for each time interval t=1 to m, where m is the time interval that equals 10% of the length of the data set. The mean displacement was plotted with respect to time giving a curve with a linear or quadratic shape, depending on the behavior of the bead. Diffusion rates and velocity were calculated by fitting the curve with the equation MSD=4Dt+v^2t^2, where D is the diffusion coefficient, v is the velocity and t is time. D and v were calculated for each bead independently and presented as averages or as individual values, as described in each case.
Cell culture and transfection: ND-7 cells (rat neuroblastoma/DRG hybrid cells) were plated and transfected with pMyc-L1-CAM, pMyc-L1-CAM-YF, pMyc-L1-CAM-YH, or pMyc-L1-CAM-STOP expression constructs as described in Example 3, supra.
In some instances, ND-7 cells transfected with pMyc-L1-CAM were treated with the cytoskeletal inhibitor cytochalasin D (2 μM; Sigma) or nocadazole (1 μM; Sigma). For these experiments treatment with DMSO (0.01%) vehicle alone served as the negative control.
In some instances, ND-7 cells transfected with pMyc-L1-CAM were treated with neural growth factor (NGF) to stimulate phosphorylation of tyrosine 1229 (Y1229) of the L1-CAM cytoplasmic domain, and thereby inhibit ankyrin binding. […]

The target of experiment [4] is T1, L1-CAM-ankyrin interactions (Homo sapiens, UniProt Q01484).
T1 construct: expressed in transfected cells; host or cells: human kidney 293 cells
Description: Ankyrin recruitment assay: ankyrinB co-localization with L1-CAM at the membrane of transfected 293 cells. It is filed as cell-based. The settings on record: 50 ng/mL EGF or 100 ng/mL NGF for 1 hour. As for the experimental part: Cell culture aid transfection: Human kidney 293 cells were cultured in DMEM medium (Gibco) supplemented with penicillin, streptomycin, L-glutamine, and 10% fetal bovine serum (Hyclone). The pMyc-L1-CAM or pL1-CAM-GFP expression constructs were transfected into cultured human kidney 293 cells using Lipofectamine plus (Invitrogen) according to manufacturer instructions. Cells were cultured for 24-48 hours and then used, or cultured continuously in the presence of 0.5 μg.mL G418 (Gibco) to select for stably transfected cells lines, to generate stable pooled lines of L1-CAM-expressing cells.
In some instances, transfected 293 cells were treated with neural growth factor (NGF) or epidermal growth factor (EGF) to stimulate phosphorylation of tyrosine 1229 (Y1229) of the L1-CAM cytoplasmic domain, and thereby inhibit ankyrin binding. In these cases, cells were treated with 50 ng/mL EGF (Gibco) or 100 ng/mL NGF (Gibco) for 1 hour prior to the assay. […]
Ankyrin and L1-CAM were detected by indirect immunofluorescence in double-labeled confocal sections through cell aggregates to permit the visualization of L1 and ankyrinB at the cell membrane. Expression of myc-L1-CAM was detected using a polyclonal anti-L1-CAM rabbit antibody. […] Ankyrin was detected using a monoclonal anti-ankyrinB mouse antibody (BD PharMingen). […]
Quantification of ankyrin immunolocalization: Confocal micrographs were then used to quantify the degree of ankyrin localization to the cell membrane of myc-L1-CAM expressing cells. Images were analyzed using ImageJ (NIH) under Macintosh OSX. The method for quantifying ankyrinB localization to the membrane uses densitometry of a line scan perpendicular to and crossing a cell-cell junction. […]
The densitometry intensity profile of the scanned line was used to determine a minimum ankyrinB signal for comparison to the value of the ankyrinB signal at the point where the maximum signal in the L1-CAM channel occurs. […] Minima were determined from the regions of the line overlapping the cytoplasm of either of the two cells. […]

T1 sequence (Q01484 whole entry): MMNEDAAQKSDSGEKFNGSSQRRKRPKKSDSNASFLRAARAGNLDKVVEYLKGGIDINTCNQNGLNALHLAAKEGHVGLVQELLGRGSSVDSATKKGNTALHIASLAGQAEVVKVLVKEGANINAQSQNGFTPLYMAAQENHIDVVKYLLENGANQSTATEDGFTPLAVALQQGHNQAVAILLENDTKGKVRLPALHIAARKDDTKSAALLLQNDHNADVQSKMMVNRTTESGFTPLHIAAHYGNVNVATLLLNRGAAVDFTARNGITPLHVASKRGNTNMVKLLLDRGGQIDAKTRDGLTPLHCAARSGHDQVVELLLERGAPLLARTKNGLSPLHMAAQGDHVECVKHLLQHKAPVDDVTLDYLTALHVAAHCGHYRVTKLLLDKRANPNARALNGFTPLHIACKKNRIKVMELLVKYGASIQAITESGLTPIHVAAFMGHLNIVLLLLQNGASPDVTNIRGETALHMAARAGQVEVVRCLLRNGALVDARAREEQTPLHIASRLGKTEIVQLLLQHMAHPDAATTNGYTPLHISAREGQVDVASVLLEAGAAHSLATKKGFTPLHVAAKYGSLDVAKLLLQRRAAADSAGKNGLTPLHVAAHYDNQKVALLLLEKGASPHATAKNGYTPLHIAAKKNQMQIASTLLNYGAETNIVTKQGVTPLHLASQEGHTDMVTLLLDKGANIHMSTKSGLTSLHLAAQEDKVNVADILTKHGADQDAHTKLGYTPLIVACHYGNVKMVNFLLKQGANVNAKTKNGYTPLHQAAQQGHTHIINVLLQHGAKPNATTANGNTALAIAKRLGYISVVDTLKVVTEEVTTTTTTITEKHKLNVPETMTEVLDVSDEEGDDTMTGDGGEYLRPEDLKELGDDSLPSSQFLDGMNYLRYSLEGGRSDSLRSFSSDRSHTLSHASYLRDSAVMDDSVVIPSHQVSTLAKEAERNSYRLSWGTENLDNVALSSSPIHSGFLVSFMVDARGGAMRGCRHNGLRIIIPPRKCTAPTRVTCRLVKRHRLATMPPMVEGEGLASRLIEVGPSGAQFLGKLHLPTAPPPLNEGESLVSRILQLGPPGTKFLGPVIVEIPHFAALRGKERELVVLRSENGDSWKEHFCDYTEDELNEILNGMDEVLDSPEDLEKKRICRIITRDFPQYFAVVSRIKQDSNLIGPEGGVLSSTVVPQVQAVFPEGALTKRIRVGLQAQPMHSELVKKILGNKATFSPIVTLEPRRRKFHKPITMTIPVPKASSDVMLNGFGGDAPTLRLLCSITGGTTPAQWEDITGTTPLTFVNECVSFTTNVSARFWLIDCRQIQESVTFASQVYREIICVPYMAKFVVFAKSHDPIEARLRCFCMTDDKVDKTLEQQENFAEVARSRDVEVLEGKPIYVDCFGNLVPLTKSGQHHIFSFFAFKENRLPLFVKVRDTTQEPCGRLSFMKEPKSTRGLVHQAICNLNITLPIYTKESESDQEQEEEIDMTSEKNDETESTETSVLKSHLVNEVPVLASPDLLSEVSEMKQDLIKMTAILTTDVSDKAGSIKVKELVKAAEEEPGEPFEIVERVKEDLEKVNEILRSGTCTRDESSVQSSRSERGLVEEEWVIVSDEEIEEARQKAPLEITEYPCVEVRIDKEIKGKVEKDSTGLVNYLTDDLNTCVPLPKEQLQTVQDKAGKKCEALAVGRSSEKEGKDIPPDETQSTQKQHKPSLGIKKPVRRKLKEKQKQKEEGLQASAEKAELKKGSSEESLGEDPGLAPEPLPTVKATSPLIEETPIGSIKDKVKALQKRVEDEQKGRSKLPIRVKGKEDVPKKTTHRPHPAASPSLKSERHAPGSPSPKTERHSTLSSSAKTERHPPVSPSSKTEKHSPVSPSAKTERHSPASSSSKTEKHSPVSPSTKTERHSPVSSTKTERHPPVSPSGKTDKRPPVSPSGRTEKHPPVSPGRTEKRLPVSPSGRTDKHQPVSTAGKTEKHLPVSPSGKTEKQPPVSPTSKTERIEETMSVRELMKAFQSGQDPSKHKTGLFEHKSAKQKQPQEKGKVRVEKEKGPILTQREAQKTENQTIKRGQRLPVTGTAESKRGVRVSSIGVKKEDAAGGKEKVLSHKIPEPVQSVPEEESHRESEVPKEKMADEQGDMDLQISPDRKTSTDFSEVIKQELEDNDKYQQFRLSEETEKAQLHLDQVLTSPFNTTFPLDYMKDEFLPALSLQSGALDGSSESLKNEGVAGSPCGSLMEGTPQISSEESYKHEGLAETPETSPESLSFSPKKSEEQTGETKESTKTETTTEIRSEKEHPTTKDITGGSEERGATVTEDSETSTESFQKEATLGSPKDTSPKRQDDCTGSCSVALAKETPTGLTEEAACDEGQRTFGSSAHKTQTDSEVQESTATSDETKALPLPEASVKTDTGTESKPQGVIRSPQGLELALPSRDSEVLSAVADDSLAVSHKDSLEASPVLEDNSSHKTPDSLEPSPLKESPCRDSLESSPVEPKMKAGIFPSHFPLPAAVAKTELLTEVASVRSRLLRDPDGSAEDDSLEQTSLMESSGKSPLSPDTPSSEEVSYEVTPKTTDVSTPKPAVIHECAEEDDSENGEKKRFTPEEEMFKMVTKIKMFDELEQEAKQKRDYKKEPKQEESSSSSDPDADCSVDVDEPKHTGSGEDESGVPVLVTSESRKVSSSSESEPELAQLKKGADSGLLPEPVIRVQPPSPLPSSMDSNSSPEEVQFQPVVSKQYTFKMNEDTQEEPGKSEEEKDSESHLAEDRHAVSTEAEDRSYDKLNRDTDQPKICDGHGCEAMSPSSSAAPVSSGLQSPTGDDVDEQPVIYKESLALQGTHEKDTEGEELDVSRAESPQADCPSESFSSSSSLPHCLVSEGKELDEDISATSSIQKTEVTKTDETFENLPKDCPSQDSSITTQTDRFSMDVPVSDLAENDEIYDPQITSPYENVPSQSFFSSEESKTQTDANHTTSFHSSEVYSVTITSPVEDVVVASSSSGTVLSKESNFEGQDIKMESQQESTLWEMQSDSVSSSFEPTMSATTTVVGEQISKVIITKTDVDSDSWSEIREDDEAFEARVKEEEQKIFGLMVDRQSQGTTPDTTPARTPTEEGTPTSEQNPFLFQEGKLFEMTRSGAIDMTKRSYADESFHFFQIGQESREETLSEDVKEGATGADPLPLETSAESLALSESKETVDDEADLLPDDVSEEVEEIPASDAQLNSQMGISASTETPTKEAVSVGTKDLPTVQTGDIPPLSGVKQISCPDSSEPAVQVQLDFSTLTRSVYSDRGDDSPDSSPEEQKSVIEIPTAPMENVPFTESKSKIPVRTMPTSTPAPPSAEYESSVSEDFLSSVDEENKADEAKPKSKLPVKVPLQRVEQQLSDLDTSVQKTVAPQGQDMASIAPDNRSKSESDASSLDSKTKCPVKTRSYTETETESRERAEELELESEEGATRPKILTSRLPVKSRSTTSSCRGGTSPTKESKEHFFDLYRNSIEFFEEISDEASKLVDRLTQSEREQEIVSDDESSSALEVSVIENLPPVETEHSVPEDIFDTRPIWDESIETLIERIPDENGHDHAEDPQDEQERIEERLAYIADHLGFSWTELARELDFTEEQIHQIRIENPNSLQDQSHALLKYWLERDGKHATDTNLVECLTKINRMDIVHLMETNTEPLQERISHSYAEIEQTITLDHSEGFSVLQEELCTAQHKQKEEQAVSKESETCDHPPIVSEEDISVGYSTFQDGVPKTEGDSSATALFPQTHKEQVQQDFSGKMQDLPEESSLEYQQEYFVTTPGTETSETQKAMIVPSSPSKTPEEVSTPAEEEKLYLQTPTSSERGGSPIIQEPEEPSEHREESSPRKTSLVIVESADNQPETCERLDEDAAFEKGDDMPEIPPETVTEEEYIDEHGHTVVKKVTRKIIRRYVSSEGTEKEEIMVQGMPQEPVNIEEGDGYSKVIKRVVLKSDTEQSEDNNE
Description for Cav2.2 channels: Antibodies: Primary antibody: rabbit anti-pan α1 binds Ca channel (1:200 dilution, [1.5 μg/ml) [Alomone Labs; Jerusalem, Israel]. Secondary antibodies: (1:200 dilution, 10 μg/ml): tetramenthylrhodamine conjugated goat anti-rabbit IgG (H+L) [Molecular Probes; Eugene, OR]
Dorsal root ganglia were dissected from 11 to 12 day old embryos, incubated for 30 min in saline containing nominal Ca 2^+ and Mg 2^+, and 0.05% collagenase (type A, Boehringer Mannheim). Ganglia were dissociated mechanically into single cells by trituration in culture medium containing Dulbecco's modified Eagle's medium supplemented with 10% horse serum, 5% chicken embryo extract, penicillin, streptomycin, glutamine, and nerve growth factor. Cells were plated at a density of ˜50,000 cells/collagen-coated 35 mm tissue culture dish and studied between 1 and 3 days in vitro.
Immunohistochemistry: Cultures grown on poly-L-lysine cover glass slips were exposed to saline or 100 mM NE (norepinephrine), fixed and permeabilized in methanol at −20° C. for 15-minutes or 20 second (for residual experiment) followed by 3×5-min washes in PHEM Buffer [60 mM PIPES, 25 mM HEPES, 10 mM EGTA, 2 mM MgCl2, pH 6.9]. Cells were alternatively fixed with 4% paraformaldehyde in PHEM buffer, pH 6.9 for 20-min, washed 3×3-min with PHEM buffer and permeabilization with 0.1% Triton X-100/PHEM buffer for 3-min. Blocking was performed using 5% BSA in PHEM Buffer for 1-h at 4 C. Following overnight incubation with primary antibody in 1% BSA and 1% normal goat sera in PHEM Buffer at 4 C. After washes with PHEM Buffer, cover slips were incubated with fluorophore-conjugated secondary antibodies in 1% BSA PHEM Buffer for 1.5 hours at room temperature in the dark. […]
Images of fixed cells were obtained with a pinhole setting of 0.95 using a UV 100× 1.4NA oil Leica objective lens and an optical zoom between 1.4 and 2× at slow acquisition speed with 4× frame averaging accumulation. The number of sections was calculated by the Leica TCS software based on acquisition of sections at 240 nm intervals in the Z-plane. […]

Consider `NCC(CC(=O)O)c1ccc(Cl)cc1` (racemic) [Baclofen, 4-Amino-3-[4-chlorophenyl] butanoic acid], for which the “DRG neurons secreting low levels of Substance P” value in experiment [1] turned out to be 75%.
In the case of `NC[C@H](O)c1ccc(O)c(O)c1` (racemic) [norepinephrine, Norepinephrine], the “punctate distribution of Cav2.2 channels in the membrane” value in the experiment on Cav2.2 channels was “rapidly (within 2s) reduced”.
On to `C=C1[C@@H](C)[C@H]2[C@H](Cc3ccccc3)NC(=O)[C@]23[C@H](OC(C)=O)/C=C/[C@@](C)(O)C(=O)[C@@H](C)C/C=C/[C@H]3[C@@H]1O` [cytochalasin D], for which the “bead rigidity on the cell surface (resistance to lateral displacement)” value in experiment [2] is reported as “entirely abolished”. In experiment [3], the “% of trials diffusing” value was found to be 83.3%, the “% of trials retrograde” value is 0% and the “% of trials stationary” value was found to be 16.7%.
Consider `COC(=O)Nc1nc2cc(C(=O)c3cccs3)ccc2[nH]1` [nocadazole], for which, in experiment [3], the “% of trials diffusing” value was found to be 25%, the “% of trials retrograde” value stood at 43.75% and the “% of trials stationary” value was determined as 31.25%.
Turning to EGF: epidermal growth factor (Gibco), the “ankyrin B colocalization with L1-CAM at the cell membrane” value in experiment [4] is reported as “significant reduction; also recorded: inhibited ankyrin membrane localization”.
